Measurements reported in ChEMBL document CHEMBL1177692 (Bioorg Med Chem, 2010).

Target: Carbonic anhydrase 9 (Homo sapiens, UniProt Q16790)
Experiment: Inhibition of human recombinant carbonic anhydrase 9 catalytic domain preincubated for 15 mins by CO2 hydration method

Compound	Ki [µM]
COc1ccc2c(CC(=O)Nc3ccc(S(N)(=O)=O)cc3)cc(=O)oc2c1	0.087
COc1ccc2c(CC(=O)Nc3cc(C(F)(F)F)c(S(N)(=O)=O)cc3S(N)(=O)=O)cc(=O)oc2c1	0.014
COc1ccc2c(CC(=O)Nc3cccc(S(N)(=O)=O)c3)cc(=O)oc2c1	0.059
